# Target: T1, aldolase A (Homo sapiens, UniProt P04075)
# T1 sequence (P04075 1-364): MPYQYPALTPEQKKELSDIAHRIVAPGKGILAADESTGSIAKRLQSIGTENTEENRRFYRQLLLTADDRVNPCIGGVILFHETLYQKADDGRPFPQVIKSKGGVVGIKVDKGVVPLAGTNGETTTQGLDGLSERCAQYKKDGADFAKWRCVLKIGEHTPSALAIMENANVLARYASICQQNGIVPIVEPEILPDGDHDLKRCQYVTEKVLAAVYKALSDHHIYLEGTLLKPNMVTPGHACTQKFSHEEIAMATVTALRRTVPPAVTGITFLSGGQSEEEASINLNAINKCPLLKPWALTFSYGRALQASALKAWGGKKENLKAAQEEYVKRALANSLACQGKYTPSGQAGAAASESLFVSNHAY
# Assay: Activity assay at protein level: aldolase-catalyzed degradation of fructose-1,6-biphosphate, coupled triose phosphate isomerase/glycerol-3-phosphate dehydrogenase method
# Type: biochemical
# Settings: test concentration of compound 100 μM, FBP 500 μM, 37° C., read-out: Inhibition rate (%) of aldolase activity
# Experimental: The inhibition on aldolase activity of a compound was evaluated by its inhibition on the rate of aldolase-catalyzed degradation of the substrate fructose-1,6-biphosphate (FBP). Method for conjugation of triose phosphate isomerase/glycerol-3-phosphate dehydrogenase [Racker, E. (1952) J. Biol. Chem. 196, 347-351] was specifically used for biochemical activity assay (Table 3).
# The specific method was as follows:
# (1) About 250 ng of aldolase A was dissolved in 30 μL of water, added to the bottom of a 96-well plate of quartz, and a compound (dissolved in DMSO, not exceeding 1% of the total reaction volume) was added to the aldolase A solution, followed by shaking and mixing, and incubation for 30 min at room temperature; […]
# (2) 70 μL of an enzyme reaction system (its formulation was given below) was added, and immediately put into a microplate reader (SpectraMax M5, Molecular Devices), to carry out reaction at 37° C. At the same time, the absorbance at 340 nm was measured every 30 s, and a total of 61 absorbance values were obtained for each well. The absorbance value linearly changed with time, and the slope was the enzyme activity of aldolase in the well. The specific value was calculated by SoftMax Pro 5.4.1; […]
# a. enzyme reaction buffer (50 mM TEA-HCl, pH 7.4, 10 mM EDTA) […]
# d. triose phosphate isomerase (about 20 U) e. glycerol-3-phosphate dehydrogenase (about 2 U)
# (3) Two parallel experiments were set for each group, with DMSO having a final concentration of 1% as the blank control, and the final concentration of compound being 100 μM.
row,Structure (SMILES),inhibition at 100 µM
1,CCn1cc[n+](Cc2cc(F)ccc2OC)c1C [IA-6],83.4%
2,CCn1cc[n+](Cc2c(Cl)cccc2Cl)c1C [IA-7],88.4%
3,CCCn1cc[n+](Cc2cc(F)ccc2OC)c1C [IA-10],0.06%
4,Cc1n(C(C)C)cc[n+]1Cc1c(Cl)cccc1Cl [IA-14],5.06%
5,CCCCCCCCCCCCCCCCn1c(C)[n+](Cc2c(F)cccc2Cl)c2ccccc21 [IIA-1],49.9%
